The test system of data set [1] is kinase panel. The experiment in a line: Eurofins kinase panel. Conditions: test compound 10 uM. The class given is biochemical.
The nature of data set [2]: iPSC pneumocytes cytotoxicity. The class given is cell-based. Conditions: protocol iPSC pneumocytes cytotoxicity. The text has this: Supplement media-1.zip/Cytotoxicity.csv, table | column: cc10; cc50; perc_min_measured; perc_max_measured
The nature of data set [3]: in vitro. Set-up: Cytotoxicity in iPSC-derived pneumocytes, CC50. The note with it: human, ipsc-derived pneumocytes; ASAP-0008327-001=ASAP-0011176-001; read-out: 50.0.
For data set [4], the target named is Nsp3-mac1 (Severe acute respiratory syndrome coronavirus 2, UniProt P0DTD1). The experiment in a line: ADPr hydrolase assay (LC-MS/MS). Conditions: Nsp3-mac1 200 nM, αNAD+ 8 μM. The class given is biochemical, SARS-CoV-2. As to the method: ADPr hydrolase activity assay was conducted in 96-well plate with pre-dispensed compounds in 8-point dose response starting from 4 μM (control wells were backfilled with DMSO). […] Nsp3-mac1 200 nM in final assay concentration was added to all wells besides “NAD+ alone” well. The plate was centrifuged at 1,500 rpm for 1 min, and then Incubated at room temperature for 15 min. After incubation, αNAD+ in final concentration of 8 μM were added to each well, and the plate was centrifuged again for 1 min. Then, the plate was incubated under shaking at room temperature for 2.45 h, followed by freezing at −80°C until LC-MS/MS analysis.
A 30-μl sample aliquot was mixed with 90 μl of methanol and 1μl of 50 μM 15N5-AMP (an internal standard). The mix was shaken for 10 min, then centrifuged (~21,000 g) for 5 min to precipitate the protein. […]
Mass detection was carried out using electrospray ionization in the positive mode. […] Analytes were detected using multiple reaction monitoring (MRM, m/z) with the following precursor and fragment masses at selected collision energy (eV, indicated in brackets): 560 > 136 (34) and 560 > 348 ([16]) for ADPR, 664 > 524 ([15]) and 664 > 541.7 ([15]) for αNAD+, 353.1 > 97 ([28]) and 353.1 > 141 ([20]) for […] (IS) m/z. […]

Data set [5] addresses CYP2D6 (Homo sapiens, UniProt P10635). The data set can be described thus: CYP inhibition. The note with it: human; isoform 2D6; In vitro CYP inhibition pooled. Type of data set: in vitro ADME. An excerpt:
(§1) Supplement media-1.zip/CYP_Inhibition.csv, table | column: ic50; potency

Data set [6] has as its target CYP3A4 (Homo sapiens, UniProt P08684). The experiment in a line: CYP inhibition. The class given is in vitro ADME. Conditions: human; isoform 3A4; In vitro CYP inhibition pooled.
From the text: as §1

Data set [7] has as its target CYP2C9 (Homo sapiens, UniProt P11712). The data set can be described thus: CYP inhibition. The class given is in vitro ADME. The note with it: human; isoform 2C9; In vitro CYP inhibition pooled.
From the text: as §1

Data set [8] deals with CYP1A2 (Homo sapiens, UniProt P05177). The experiment in a line: CYP inhibition. Type of data set: in vitro ADME. Conditions: human; isoform 1A2; In vitro CYP inhibition pooled.
From the text: as §1

For data set [9], the target named is CYP2C19 (Homo sapiens, UniProt P33261). The data set can be described thus: CYP inhibition. Type of data set: in vitro ADME. The note with it: human; isoform 2C19; In vitro CYP inhibition pooled.
From the text: as §1

Data set [10] has as its system MERS-CoV. The class given is cell-based. The note with it: Vero E6/TMPRSS2 MERS-CoV antiviral effect with P-gp inhibitor.

Sequence of CYP2C19 (P33261 whole entry, canonical isoform): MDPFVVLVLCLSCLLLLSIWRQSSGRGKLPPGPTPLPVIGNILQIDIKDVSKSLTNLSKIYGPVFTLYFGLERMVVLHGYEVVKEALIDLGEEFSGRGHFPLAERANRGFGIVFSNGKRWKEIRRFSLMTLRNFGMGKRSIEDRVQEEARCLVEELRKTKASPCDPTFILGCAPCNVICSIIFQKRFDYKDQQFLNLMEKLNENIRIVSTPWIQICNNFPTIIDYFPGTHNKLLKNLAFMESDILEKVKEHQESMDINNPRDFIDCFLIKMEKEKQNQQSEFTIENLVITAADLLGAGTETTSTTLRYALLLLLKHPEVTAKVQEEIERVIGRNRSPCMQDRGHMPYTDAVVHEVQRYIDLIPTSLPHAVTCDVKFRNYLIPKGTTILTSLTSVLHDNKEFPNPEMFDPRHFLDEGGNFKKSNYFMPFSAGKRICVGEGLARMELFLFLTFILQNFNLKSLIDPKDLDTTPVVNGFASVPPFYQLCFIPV
Sequence of CYP3A4 (P08684 2-503): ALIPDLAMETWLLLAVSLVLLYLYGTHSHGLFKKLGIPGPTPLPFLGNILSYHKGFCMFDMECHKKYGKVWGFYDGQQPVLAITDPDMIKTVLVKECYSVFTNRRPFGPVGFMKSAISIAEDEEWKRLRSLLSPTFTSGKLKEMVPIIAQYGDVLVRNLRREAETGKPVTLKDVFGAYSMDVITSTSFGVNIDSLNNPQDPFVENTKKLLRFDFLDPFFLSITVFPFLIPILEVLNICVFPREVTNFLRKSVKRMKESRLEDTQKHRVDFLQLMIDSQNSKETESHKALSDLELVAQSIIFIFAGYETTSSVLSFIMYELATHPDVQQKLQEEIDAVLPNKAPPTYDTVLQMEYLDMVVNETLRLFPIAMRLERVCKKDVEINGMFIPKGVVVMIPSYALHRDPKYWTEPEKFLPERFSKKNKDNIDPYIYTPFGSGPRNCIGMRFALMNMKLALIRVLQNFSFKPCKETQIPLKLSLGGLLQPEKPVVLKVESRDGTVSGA
Sequence of CYP1A2 (P05177 2-516): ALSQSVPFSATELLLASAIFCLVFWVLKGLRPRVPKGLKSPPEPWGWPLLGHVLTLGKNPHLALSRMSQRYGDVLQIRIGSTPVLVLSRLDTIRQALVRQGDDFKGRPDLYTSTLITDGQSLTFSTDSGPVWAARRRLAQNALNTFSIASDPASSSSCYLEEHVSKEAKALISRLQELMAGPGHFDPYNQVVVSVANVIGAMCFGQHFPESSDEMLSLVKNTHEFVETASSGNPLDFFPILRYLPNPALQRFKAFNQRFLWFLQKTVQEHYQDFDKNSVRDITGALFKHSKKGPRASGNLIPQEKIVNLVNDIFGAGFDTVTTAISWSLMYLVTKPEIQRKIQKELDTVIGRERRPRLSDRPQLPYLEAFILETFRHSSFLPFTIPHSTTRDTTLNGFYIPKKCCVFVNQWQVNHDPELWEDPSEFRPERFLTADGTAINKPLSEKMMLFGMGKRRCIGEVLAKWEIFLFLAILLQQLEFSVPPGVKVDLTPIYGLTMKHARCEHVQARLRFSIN
Sequence of CYP2D6 (P10635 whole entry, canonical isoform): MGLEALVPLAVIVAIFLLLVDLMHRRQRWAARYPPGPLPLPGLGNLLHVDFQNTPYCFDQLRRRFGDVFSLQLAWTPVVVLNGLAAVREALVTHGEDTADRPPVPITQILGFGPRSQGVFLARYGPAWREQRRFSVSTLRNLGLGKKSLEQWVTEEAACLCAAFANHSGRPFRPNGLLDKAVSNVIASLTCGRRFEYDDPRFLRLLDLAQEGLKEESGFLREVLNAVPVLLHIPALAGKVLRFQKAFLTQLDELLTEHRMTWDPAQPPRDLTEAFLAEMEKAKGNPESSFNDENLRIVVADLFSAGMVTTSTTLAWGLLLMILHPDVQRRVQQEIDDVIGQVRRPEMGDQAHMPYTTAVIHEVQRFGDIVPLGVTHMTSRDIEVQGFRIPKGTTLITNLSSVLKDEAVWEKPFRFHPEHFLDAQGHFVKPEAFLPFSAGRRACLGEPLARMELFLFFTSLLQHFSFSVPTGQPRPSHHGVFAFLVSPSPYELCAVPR
Sequence of CYP2C9 (P11712 whole entry, canonical isoform): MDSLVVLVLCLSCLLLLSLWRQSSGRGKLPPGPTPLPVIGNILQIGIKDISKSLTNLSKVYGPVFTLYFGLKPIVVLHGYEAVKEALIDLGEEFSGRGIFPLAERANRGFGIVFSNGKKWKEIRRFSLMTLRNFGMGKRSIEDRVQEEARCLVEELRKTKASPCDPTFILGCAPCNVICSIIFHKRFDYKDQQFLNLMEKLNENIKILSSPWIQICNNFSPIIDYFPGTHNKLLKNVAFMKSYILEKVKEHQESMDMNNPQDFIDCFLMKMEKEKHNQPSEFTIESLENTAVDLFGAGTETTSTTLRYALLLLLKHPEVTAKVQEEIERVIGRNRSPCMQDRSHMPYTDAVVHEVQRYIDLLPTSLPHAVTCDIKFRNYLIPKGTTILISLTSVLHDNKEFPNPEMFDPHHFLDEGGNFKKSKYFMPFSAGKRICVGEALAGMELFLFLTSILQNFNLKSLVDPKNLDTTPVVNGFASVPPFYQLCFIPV

Consider `CC(C)C(Nc1ncnc2[nH]ccc12)c1ccc2c(c1)S(=O)(=O)CCC2` (stereo not drawn) [ASAP-0008327], for which the perc_activity in data set [1] (kinase ALK(h), ATP 200 uM) worked out at 93%; in [1] (kinase AMPKα1(h), ATP 45 uM), 94%; in data set [1] (kinase ASK1(h), ATP 200 uM) it was 108%; in data set [1] (kinase Abl(h), ATP 45 uM) it was 93%; in data set [1] (kinase Aurora-A(h), ATP 15 uM), 57%. For the same compound, in data set [2], the CC50 is above 50 µM.
In the case of `CNCc1cc(-c2cc3c(N[C@@H](c4ccc5c(c4)S(=O)(=O)CCC5)C(C)C)ncnc3[nH]2)co1` [ASAP-0011176], in data set [3], the CC50 was above 50 µM.
As to `CC(C)C(Nc1ncnc2[nH]c(C(=O)NC3CCN(C)C3)cc12)c1ccc2c(c1)S(=O)(=O)CCC2` (stereo not drawn) [ASAP-0011198], the IC50 is 0.42 µM in data set [4]; above 50 µM in data set [5]; above 50 µM in data set [6]; above 50 µM in [7]; above 50 µM in [8]; above 50 µM in data set [9].
In [10], `Cn1ncc(-c2cc3c(N[C@@H](c4ccc5c(n4)OCCO5)C(C)(C)C)ncnc3[nH]2)c1C#N` [ASAP-0011221] showed an EC50 above 5 µM and an EC90 above 5 µM. In [10] (maximum measured response), the perc_max_measured came out at 128.492%. This compound yielded a perc_min_measured in data set [10] (minimum measured response) of 99.797%.
Regarding `Cc1nn(C)cc1-c1cc2c(NC(c3ccc4c(c3)S(=O)(=O)CCC4)C(C)C)ncnc2[nH]1` (stereo not drawn) [ASAP-0011446], in data set [4], the midpoint of inhibition, the IC50, lay at 0.28 µM.

Usually IC50 stands for the concentration that inhibits the measured activity by half. Low readings indicate greater potency in that assay, high ones weaker potency in that assay. For orientation: EC50 means the concentration that produces a half-maximal response. One may read the EC90 as the point of the concentration-response curve where the effect stands at 90%. Low readings indicate an effect from little substance, high ones a need for much substance.

Values taken from article doi:10.1101/2024.08.19.608619, “Discovery of potent SARS-CoV-2 nsp3 macrodomain inhibitors uncovers lack of translation to cellular antiviral response” (bioRxiv, 2024).
